The numbers were not newly measured in patent publication US10125164B2, “Process for preparing D-arginyl-2,6-dimethyl-L-tyrosyl-L-lysyl-L-phenylalaninamide” (FLAMMA S.P.A., priority 2014, dated 2018), which cites them from elsewhere.

One data set concerns the target mu-opioid receptor (Homo sapiens, UniProt P35372).
The next data set has as its system mouse pancreatic islets. Conditions: 3 mg/kg i.p. qd for 2 weeks.
Data set [1] concerns unilateral ureteral obstruction. Conditions: rats, intraperitoneal 1 and 3 mg/kg, 1 day prior to obstruction and every day thereafter for 14 days.
Data set [2] deals with SH-SY5Y neuronal cell line. Conditions: compound <1 nM.
In the next data set the test system is N2A neuronal cell line. As to conditions: compound <1 nM.
In data set [3] the test system is inner mitochondrial membrane.
For data set [4], the system named is G93A mouse model of amyotrophic lateral sclerosis. Conditions: 5 mg/kg/day i.p. starting at 30 days of age.

The structures appear in SMILES notation. Where a SMILES comes first, the peptide text is derived from it. [ ]: non-standard residue; d: D form. Dmt = Cc1cc(O)cc(C)c1C[C@H](N)C(=O)O

mu-opioid receptor, sequence (P35372 whole entry): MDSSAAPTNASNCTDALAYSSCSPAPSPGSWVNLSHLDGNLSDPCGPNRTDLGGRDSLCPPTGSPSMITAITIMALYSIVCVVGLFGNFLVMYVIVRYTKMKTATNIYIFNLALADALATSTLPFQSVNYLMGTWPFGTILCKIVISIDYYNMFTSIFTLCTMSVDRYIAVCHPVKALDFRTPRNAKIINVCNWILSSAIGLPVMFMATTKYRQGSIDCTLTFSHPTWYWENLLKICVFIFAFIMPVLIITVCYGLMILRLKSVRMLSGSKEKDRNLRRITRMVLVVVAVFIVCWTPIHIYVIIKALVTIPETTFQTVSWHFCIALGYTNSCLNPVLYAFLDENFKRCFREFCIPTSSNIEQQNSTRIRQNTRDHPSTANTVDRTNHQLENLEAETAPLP

In the case of `Cc1cc(O)cc(C)c1C[C@H](NC(=O)[C@H](N)CCCNC(=N)N)C(=O)N[C@@H](CCCCN)C(=O)N[C@@H](Cc1ccccc1)C(N)=O` [D-Arginyl-2,6-dimethyl-L-tyrosyl-L-lysyl-L-phenylalaninamide] (H-[dR][Dmt]KF-NH2), the “mu-opioid receptor agonist activity” value on mu-opioid receptor was “does not have mu-opioid receptor agonist activity”. Further, in the data set with mouse pancreatic islets, the “apoptosis in pancreatic islets caused by streptozotocin” value is reported as “prevented” and the “insulin reduction in pancreatic islets caused by streptozotocin” value was “prevented”. Besides, in data set [1], the interstitial fibrosis entry was “significantly decreased”, the macrophage infiltration result was “significantly decreased” and the tubular damage entry was “significantly decreased”. For the same molecule, in data set [2], the “intracellular reactive oxygen species” value is “significantly reduced”, the mitochondrial potential result was “increased” and the tBHP-induced apoptosis result is “prevented”. In the data set on N2A neuronal cell line, the “intracellular reactive oxygen species” value was “significantly reduced”, the mitochondrial potential entry is listed as “increased” and the tBHP-induced apoptosis result is recorded as “prevented”. The antioxidant activity result in data set [3] is given as “showed antioxidant activity”. Besides, the disease onset result in data set [4] is “significant delay”.
